Test results published in patent US10196364B2, “Pyrimidine carboxamides as sodium channel blockers” (Purdue Pharma L.P., priority 2013, dated 2019).
pIC50: −log10 of the molar value.

biological target: human Nav1.7 (Homo sapiens, UniProt Q15858); experiment: FLIPR sodium dye assay (CoroNa Green AM Na+ dye, primary fluorescence assay) in recombinant Nav1.7/HEK293 cells; assay type: cell-based; settings: not given
Sequence (Q15858 1-1977 isoform Q15858-3): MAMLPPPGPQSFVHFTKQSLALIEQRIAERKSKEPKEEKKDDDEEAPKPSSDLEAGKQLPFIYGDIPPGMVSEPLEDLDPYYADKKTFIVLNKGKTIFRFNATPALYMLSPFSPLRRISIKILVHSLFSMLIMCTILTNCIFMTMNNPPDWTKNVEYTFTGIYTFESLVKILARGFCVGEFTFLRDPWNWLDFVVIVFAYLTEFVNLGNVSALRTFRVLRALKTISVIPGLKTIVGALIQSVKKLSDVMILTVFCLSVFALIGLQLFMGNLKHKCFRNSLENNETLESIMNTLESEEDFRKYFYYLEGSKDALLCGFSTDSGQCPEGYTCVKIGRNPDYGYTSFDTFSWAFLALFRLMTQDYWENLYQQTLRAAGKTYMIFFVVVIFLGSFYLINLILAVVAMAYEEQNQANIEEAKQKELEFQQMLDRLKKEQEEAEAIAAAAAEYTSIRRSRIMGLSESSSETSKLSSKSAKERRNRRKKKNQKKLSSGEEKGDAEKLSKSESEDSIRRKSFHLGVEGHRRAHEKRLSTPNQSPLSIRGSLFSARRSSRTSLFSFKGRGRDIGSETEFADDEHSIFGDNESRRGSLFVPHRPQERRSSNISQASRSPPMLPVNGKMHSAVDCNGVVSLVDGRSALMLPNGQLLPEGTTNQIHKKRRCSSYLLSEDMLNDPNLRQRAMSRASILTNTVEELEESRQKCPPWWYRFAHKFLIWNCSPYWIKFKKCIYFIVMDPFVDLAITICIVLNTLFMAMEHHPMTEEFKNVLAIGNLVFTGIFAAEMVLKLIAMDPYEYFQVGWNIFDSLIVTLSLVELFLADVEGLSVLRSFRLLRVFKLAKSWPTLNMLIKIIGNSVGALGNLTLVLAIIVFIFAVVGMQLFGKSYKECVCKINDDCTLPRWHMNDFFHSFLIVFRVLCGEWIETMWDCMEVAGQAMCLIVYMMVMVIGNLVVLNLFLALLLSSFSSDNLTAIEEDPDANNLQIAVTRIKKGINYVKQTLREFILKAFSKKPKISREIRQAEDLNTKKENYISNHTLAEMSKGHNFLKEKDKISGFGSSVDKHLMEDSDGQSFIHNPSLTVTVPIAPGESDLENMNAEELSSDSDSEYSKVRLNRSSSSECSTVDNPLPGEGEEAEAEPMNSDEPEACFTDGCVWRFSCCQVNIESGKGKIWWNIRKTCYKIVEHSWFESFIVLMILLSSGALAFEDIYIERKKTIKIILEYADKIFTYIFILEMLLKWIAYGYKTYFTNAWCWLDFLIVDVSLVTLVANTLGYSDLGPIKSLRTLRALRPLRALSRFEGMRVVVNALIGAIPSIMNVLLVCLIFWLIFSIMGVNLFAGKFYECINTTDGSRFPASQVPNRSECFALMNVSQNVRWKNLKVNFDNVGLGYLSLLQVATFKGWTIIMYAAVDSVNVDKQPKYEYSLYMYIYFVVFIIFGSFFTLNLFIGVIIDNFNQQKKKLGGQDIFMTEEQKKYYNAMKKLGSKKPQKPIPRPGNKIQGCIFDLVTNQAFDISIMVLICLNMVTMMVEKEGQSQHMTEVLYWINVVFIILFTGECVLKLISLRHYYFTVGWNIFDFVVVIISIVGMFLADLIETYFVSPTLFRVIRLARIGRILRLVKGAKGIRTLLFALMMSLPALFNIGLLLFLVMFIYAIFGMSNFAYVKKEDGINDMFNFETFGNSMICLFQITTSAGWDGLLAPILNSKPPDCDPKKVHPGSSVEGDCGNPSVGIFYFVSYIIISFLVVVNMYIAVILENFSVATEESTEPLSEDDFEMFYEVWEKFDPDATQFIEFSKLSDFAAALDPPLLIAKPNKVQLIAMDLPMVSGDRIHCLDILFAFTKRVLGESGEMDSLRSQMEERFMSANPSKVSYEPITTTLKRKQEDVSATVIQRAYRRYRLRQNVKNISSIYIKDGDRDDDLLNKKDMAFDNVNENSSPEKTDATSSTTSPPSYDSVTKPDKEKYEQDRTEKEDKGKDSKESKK

Row | SMILES | pIC50
1 | NC(=O)c1cc(N[C@@H]2CCNC2=O)nc(-c2ccc(Oc3ccc(C(F)(F)F)cn3)cc2)n1 [compound 149, (R)-6-((2-oxopyrrolidin-3-yl)amino)-2-(4-((5-(trifluoromethyl)pyridin-2-yl)oxy)phenyl)pyrimidine-4-carboxamide] | 6.49

same assay, conditions: Table 6; CoroNa Green AM Na+ dye primary fluorescence assay; read-out: Nav1.7 Activity (μM) FLIPR assay IC50

Row | IC50 [µM] | SMILES
2 | > 20 | NC(=O)c1cc(N[C@H]2CCNC2=O)nc(N2CC3CC2CN3Cc2ccc(F)cc2)n1 (stereo partly drawn) [compound 139, 2-(5-(4-fluorobenzyl)-2,5-diazabicyclo[2.2.1]heptan-2-yl)-6-(((S)-2-oxopyrrolidin-3-yl)amino)pyrimidine-4-carboxamide]
3 | 0.74 | NC(=O)c1cc(N[C@H]2CCNC2=O)nc(-c2ccc(Oc3cnc(C(F)(F)F)cn3)cc2)n1 [compound 141, (S)-6-((2-oxopyrrolidin-3-yl)amino)-2-(4-((5-(trifluoromethyl)pyrazin-2-yl)oxy)phenyl)pyrimidine-4-carboxamide]
4 | 1.3 | NC(=O)c1cc(N[C@H]2CCNC2=O)nc(-c2ccc(Oc3ccc(F)cc3)c(CN3CCCCC3)c2)n1 [compound 143, (S)-2-(4-(4-fluorophenoxy)-3-(piperidin-1-ylmethyl)phenyl)-6-((2-oxopyrrolidin-3-yl)amino)pyrimidine-4-carboxamide]
5 | 1.18 | NC(=O)c1cc(N[C@H]2CCNC2=O)nc(-c2ccc(Oc3ccc(OCC(F)(F)F)cn3)cc2)n1 [compound 144, (S)-6-((2-oxopyrrolidin-3-yl)amino)-2-(4-((5-(2,2,2-trifluoroethoxy)pyridin-2-yl)oxy)phenyl)pyrimidine-4-carboxamide]
6 | 1.38 | NC(=O)c1cc(N[C@H]2CCNC2=O)nc(-c2ccc(Oc3ccc(COCC(F)(F)F)cn3)cc2)n1 [compound 145, (S)-6-((2-oxopyrrolidin-3-yl)amino)-2-(4-((5-((2,2,2-trifluoroethoxy)methyl)pyridin-2-yl)oxy)phenyl)pyrimidine-4-carboxamide]
7 | 0.54 | C[C@H](Oc1cc(C(N)=O)nc(-c2ccc(Oc3ccc(C(F)(F)F)cn3)cc2)n1)C(=O)NCCN1CCCC1 [compound 147, (S)-6-((1-oxo-1-((2-(pyrrolidin-1-yl)ethyl)amino)propan-2-yl)oxy)-2-(4-((5-(trifluoromethyl)pyridin-2-yl)oxy)phenyl)pyrimidine-4-carboxamide]
8 | > 20 | NC(=O)c1cc(N[C@H]2CCNC2=O)nc(-c2ccc(Oc3ncc(OCC(F)(F)F)cn3)cc2)n1 [compound 148, (S)-6-((2-oxopyrrolidin-3-yl)amino)-2-(4-((5-(2,2,2-trifluoroethoxy)pyrimidin-2-yl)oxy)phenyl)pyrimidine-4-carboxamide]
9 | 0.95 | NC(=O)c1cc(N[C@H]2CCNC2=O)nc(N2CC(Oc3ccc(C(F)(F)F)cn3)C2)n1 [compound 150, (S)-6-((2-oxopyrrolidin-3-yl)amino)-2-(3-((5-(trifluoromethyl)pyridin-2-yl)oxy)azetidin-1-yl)pyrimidine-4-carboxamide]
10 | 0.35 | NC(=O)c1cc(N[C@H]2CCNC2=O)nc(-c2ccc(Oc3cnc(OCC(F)(F)F)cn3)cc2)n1 [compound 151, (S)-6-((2-oxopyrrolidin-3-yl)amino)-2-(4-((5-(2,2,2-trifluoroethoxy)pyrazin-2-yl)oxy)phenyl)pyrimidine-4-carboxamide]
11 | > 20 | NC(=O)c1cc(N[C@H]2CCNC2=O)nc(-c2ccc(Oc3ccc(C(F)(F)F)nn3)cc2)n1 [compound 152, (S)-6-((2-oxopyrrolidin-3-yl)amino)-2-(4-((6-(trifluoromethyl)pyridazin-3-yl)oxy)phenyl)pyrimidine-4-carboxamide]
12 | 1.13 | NC(=O)c1cc(N[C@H]2CCNC2=O)nc(-c2ccc(Oc3ccc(OCC(F)(F)F)nn3)cc2)n1 [compound 153, (S)-6-((2-oxopyrrolidin-3-yl)amino)-2-(4-((6-(2,2,2-trifluoroethoxy)pyridazin-3-yl)oxy)phenyl)pyrimidine-4-carboxamide]
13 | > 20 | O=C(O)c1cc(N[C@H]2CCNC2=O)nc(-c2ccc(Oc3ccc(C(F)(F)F)cn3)cc2)n1 [compound 157, (S)-6-((2-oxopyrrolidin-3-yl)amino)-2-(4-((5-(trifluoromethyl)pyridin-2-yl)oxy)phenyl)pyrimidine-4-carboxylic acid]
14 | 0.89 | NC(=O)c1cc(N[C@H]2CCNC2=O)nc(-c2ccc(Oc3ccc(F)cc3)cc2CN2CCCCC2)n1 [compound 158, (S)-2-(4-(4-fluorophenoxy)-2-(piperidin-1-ylmethyl)phenyl)-6-((2-oxopyrrolidin-3-yl)amino)pyrimidine-4-carboxamide]
15 | 6.67 | NC(=O)c1cc(N[C@H]2CCNC2=O)nc(-c2ccc(Oc3ccc(F)cc3)cc2CN2CCCC2)n1 [compound 160, (S)-2-(4-(4-fluorophenoxy)-2-(pyrrolidin-1-ylmethyl)phenyl)-6-((2-oxopyrrolidin-3-yl)amino)pyrimidine-4-carboxamide]
16 | 1.9 | NC(=O)c1cc(N[C@H]2CCNC2=O)nc(-c2ccc(C(=O)c3ccc(C(F)(F)F)cn3)cc2)n1 [compound 162, (S)-6-((2-oxopyrrolidin-3-yl)amino)-2-(4-(5-(trifluoromethyl)picolinoyl)phenyl)pyrimidine-4-carboxamide]
17 | 1.43 | NC(=O)c1cc(N[C@H]2CCNC2=O)nc(-c2ccc(Oc3ccc(F)cc3)cc2CNC2CC2)n1 [compound 163, (S)-2-(2-((cyclopropylamino)methyl)-4-(4-fluorophenoxy)phenyl)-6-((2-oxopyrrolidin-3-yl)amino)pyrimidine-4-carboxamide]
18 | 1.45 | NC(=O)c1cc(N[C@H]2CCNC2=O)nc(-c2ccc(Oc3ccc(F)cc3)cc2Cn2cncn2)n1 [compound 164, (S)-2-(2-((1H-1,2,4-triazol-1-yl)methyl)-4-(4-fluorophenoxy)phenyl)-6-((2-oxopyrrolidin-3-yl)amino)pyrimidine-4-carboxamide]

Row | SMILES | IC50 [µM]
19 | NC(=O)c1cc(N[C@H]2CCNC2=O)nc(N2C3CCC2CC(Oc2ccc(C(F)(F)F)cc2-c2ccncc2)C3)n1 (stereo partly drawn) [compound 154, 6-(((S)-2-oxopyrrolidin-3-yl)amino)-2-(3-(2-(pyridin-4-yl)-4-(trifluoromethyl)phenoxy)-8-azabicyclo[3.2.1]octan-8-yl)pyrimidine-4-carboxamide] | 0.13
20 | C[C@H](Nc1cc(C(N)=O)nc(N2C3CCC2CC(Oc2ccc(C(F)(F)F)cc2-c2ccncc2)C3)n1)C(N)=O (stereo partly drawn) [compound 155, 6-(((S)-1-amino-1-oxopropan-2-yl)amino)-2-(3-(2-(pyridin-4-yl)-4-(trifluoromethyl)phenoxy)-8-azabicyclo[3.2.1]octan-8-yl)pyrimidine-4-carboxamide] | 4.1
21 | NC(=O)c1cc(N[C@H]2CCNC2=O)nc(N2C3CCC2CC(Oc2ccc(C(F)(F)F)cc2-c2cccnc2)C3)n1 (some centres unmarked) [compound 156] | 1.77
22 | NC(=O)c1cc(N[C@H]2CCNC2=O)nc(N2C3CCC2CC(Oc2ccc(F)cc2)C3)n1 (stereo partly drawn) [compound 159, 2-(3-(4-fluorophenoxy)-8-azabicyclo[3.2.1]octan-8-yl)-6-(((S)-2-oxopyrrolidin-3-yl)amino)pyrimidine-4-carboxamide] | 1.29
23 | C[C@H](Nc1cc(C(N)=O)nc(N2C3CCC2CC(Oc2ccc(F)cc2)C3)n1)C(N)=O (stereo partly drawn) [compound 161, 6-(((S)-1-amino-1-oxopropan-2-yl)amino)-2-(3-(4-fluorophenoxy)-8-azabicyclo[3.2.1]octan-8-yl)pyrimidine-4-carboxamide] | 3.24
